Laboratory results: US20230141101A1, “PDE4 INHIBITOR COMPOUND AND MEDICAL USE THEREOF” (Suzhou Longbotai Pharmaceuticals Co., Ltd., priority 2020, published 2023)

Tests used:
Format in all cases: biochemical
Conditions in all cases: 20 nM
PDE4D2 = PDE4D2 (Homo sapiens, UniProt Q08499); assay: PDE4 inhibitory activity assay (FAM-cAMP enzymatic reaction), PDE4D2
Outline: (§1)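 Each isoform is incubated with test compound for 15 min at room temperature before FAM-cAMP substrate starts a 30-min reaction.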

PDE4A1A = biological target: T1, PDE4A1A (Homo sapiens, UniProt P27815); assay: PDE4 inhibitory activity assay (FAM-cAMP enzymatic reaction), PDE4A1A
T1 construct: purchased BPS 60040
Outline: as §1

PDE4B1 = biological target: T2, PDE4B1 (Homo sapiens, UniProt Q07343); assay: PDE4 inhibitory activity assay (FAM-cAMP enzymatic reaction), PDE4B1
T2 construct: purchased BPS 60041
Outline: as §1

T2 sequence (Q07343 whole entry): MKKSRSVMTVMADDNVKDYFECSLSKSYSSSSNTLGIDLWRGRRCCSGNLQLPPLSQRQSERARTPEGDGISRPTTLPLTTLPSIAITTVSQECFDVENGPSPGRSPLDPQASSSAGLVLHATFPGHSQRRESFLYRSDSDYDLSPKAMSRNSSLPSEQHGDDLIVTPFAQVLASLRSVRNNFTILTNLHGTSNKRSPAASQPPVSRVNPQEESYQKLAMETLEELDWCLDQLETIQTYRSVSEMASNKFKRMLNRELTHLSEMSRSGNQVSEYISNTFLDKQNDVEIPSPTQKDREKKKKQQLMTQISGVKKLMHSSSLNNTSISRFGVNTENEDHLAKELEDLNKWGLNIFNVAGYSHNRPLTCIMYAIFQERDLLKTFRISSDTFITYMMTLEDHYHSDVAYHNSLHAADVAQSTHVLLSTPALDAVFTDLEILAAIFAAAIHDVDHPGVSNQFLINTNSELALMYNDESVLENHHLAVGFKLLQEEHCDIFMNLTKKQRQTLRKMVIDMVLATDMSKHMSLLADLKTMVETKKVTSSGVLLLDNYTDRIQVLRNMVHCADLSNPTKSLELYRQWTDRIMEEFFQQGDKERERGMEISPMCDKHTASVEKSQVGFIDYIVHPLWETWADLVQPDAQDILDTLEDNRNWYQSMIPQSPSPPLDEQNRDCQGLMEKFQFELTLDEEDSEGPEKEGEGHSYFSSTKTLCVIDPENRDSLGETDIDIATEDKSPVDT
Sequence of PDE4D2 (Q08499 303-809): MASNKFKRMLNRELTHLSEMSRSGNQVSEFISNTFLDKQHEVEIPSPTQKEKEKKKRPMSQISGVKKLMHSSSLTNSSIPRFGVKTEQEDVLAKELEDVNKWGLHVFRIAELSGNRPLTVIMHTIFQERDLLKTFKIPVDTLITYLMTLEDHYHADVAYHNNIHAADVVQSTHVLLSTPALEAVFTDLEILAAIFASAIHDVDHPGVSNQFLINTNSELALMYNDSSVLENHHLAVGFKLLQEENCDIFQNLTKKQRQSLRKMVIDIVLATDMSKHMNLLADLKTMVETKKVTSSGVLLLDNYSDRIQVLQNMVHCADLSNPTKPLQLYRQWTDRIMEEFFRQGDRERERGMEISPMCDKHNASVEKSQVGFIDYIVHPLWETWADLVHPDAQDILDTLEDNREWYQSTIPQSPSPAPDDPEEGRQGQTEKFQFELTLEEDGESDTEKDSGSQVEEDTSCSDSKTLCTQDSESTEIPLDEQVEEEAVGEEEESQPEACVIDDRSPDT
T1 sequence (P27815 1-647 isoform P27815-4): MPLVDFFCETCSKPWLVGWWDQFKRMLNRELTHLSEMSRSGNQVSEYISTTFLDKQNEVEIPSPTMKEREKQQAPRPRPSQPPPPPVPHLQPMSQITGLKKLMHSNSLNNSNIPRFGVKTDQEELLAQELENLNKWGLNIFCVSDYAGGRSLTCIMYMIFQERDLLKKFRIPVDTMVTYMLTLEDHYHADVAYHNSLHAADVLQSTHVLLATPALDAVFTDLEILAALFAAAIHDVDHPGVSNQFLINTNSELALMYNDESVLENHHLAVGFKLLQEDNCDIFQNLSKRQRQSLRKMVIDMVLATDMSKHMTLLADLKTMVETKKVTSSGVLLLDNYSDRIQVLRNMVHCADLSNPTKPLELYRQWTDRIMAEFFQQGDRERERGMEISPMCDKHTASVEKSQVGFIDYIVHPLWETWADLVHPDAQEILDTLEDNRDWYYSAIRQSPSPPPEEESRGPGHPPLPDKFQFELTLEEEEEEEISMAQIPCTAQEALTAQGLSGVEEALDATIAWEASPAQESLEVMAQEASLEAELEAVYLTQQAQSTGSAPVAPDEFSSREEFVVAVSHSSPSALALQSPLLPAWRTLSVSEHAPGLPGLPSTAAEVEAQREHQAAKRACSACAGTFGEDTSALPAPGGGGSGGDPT

Row | SMILES | PDE4 D2 inhibitory effect at 20 nM (PDE4D2) | PDE4 A1 inhibitory effect at 20 nM (PDE4A1A) | PDE4 B1 inhibitory effect at 20 nM (PDE4B1)
1 | CCOc1nc([C@H](CS(C)(=O)=O)N2C(=O)c3csc(NC(C)=O)c3C2=O)ccc1OC [Ex. 225, (R)—N-(5-(1-(6-ethoxy-5-methoxypyridin-2-yl)-2-(methylsulfonyl)ethyl)-4,6-dioxo-5,6-dihydro-4H-thieno[3,4-c]pyrrol-1-yl)acetamide] | − | − | −
2 | CCOc1nc([C@@H](CS(C)(=O)=O)N2C(=O)c3csc(NC(=O)CC)c3C2=O)ccc1OC [Ex. 226, (S)—N-(5-(1-(6-ethoxy-5-methoxypyridin-2-yl)-2-(methylsulfonyl)ethyl)-4,6-dioxo-5,6-dihydro-4H-thieno[3,4-c]pyrrol-1-yl)propionamide] | + | + | +
3 | CCOc1nc([C@@H](CS(C)(=O)=O)N2C(=O)c3csc(NC(=O)C4CC4)c3C2=O)ccc1OC [Ex. 227, (S)—N-(5-(1-(6-ethoxy-5-methoxypyridin-2-yl)-2-(methylsulfonyl)ethyl)-4,6-dioxo-5,6-dihydro-4H-thieno[3,4-c]pyrrol-1-yl)cyclopropanecarboxamide] | + | + | +
4 | CCOc1nc([C@@H](CS(C)(=O)=O)N2C(=O)c3csc(NC(=O)CN(C)C)c3C2=O)ccc1OC [Ex. 228, (S)-2-(dimethylamino)-N-(5-(1-(6-ethoxy-5-methoxypyridin-2-yl)-2-(methylsulfonyl)ethyl)-4,6-dioxo-5,6-dihydro-4H-thieno[3,4-c]pyrrol-1-yl)acetamide] | + | + | +
5 | CCOc1nc([C@@H](CS(C)(=O)=O)N2C(=O)c3csc(NC(=O)CN(CC)CC)c3C2=O)ccc1OC [Ex. 229, (S)-2-(diethylamino)-N-(5-(1-(6-ethoxy-5-methoxypyridin-2-yl)-2-(methylsulfonyl)ethyl)-4,6-dioxo-5,6-dihydro-4H-thieno[3,4-c]pyrrol-1-yl)acetamide] | + | + | +
6 | CCOc1nc([C@@H](CS(C)(=O)=O)N2C(=O)c3csc(NC(=O)CN4CCCCC4)c3C2=O)ccc1OC [Ex. 230, (S)—N-(5-(1-(6-ethoxy-5-methoxypyridin-2-yl)-2-(methylsulfonyl)ethyl)-4,6-dioxo-5,6-dihydro-4H-thieno[3,4-c]pyrrol-1-yl)-2-(piperidin-1-yl)acetamide] | + | + | +
7 | CCOc1nc([C@@H](CS(C)(=O)=O)N2C(=O)c3csc(NC(=O)CN4CCCC4)c3C2=O)ccc1OC [Ex. 231, (S)—N-(5-(1-(6-ethoxy-5-methoxypyridin-2-yl)-2-(methylsulfonyl)ethyl)-4,6-dioxo-5,6-dihydro-4H-thieno[3,4-c]pyrrol-1-yl)-2-(pyrrolidin-1-yl)acetamide] | + | + | +
